Experimental data reported in ChEMBL document CHEMBL3400015, “Tertiary amides of Salinomycin: A new group of antibacterial agents against Bacillus anthracis and methicillin-resistant Staphylococcus epidermidis” (Bioorg Med Chem Lett, 2015).
Converted amounts (≈) assume the structure as drawn.

Tests used:
Bacillus subtilis [1] = assay: Genotoxicity in rec-negative Bacillus subtilis M45 at 2 ug/9 mm disc after 24 hrs by disc diffusion method; type: toxicity, organism-based
Bacillus subtilis [2] = assay: Genotoxicity in rec-positive Bacillus subtilis H17 at 2 ug/9 mm disc after 24 hrs by disc diffusion method; type: toxicity, organism-based
Bacillus anthracis = assay: Antimicrobial activity against Bacillus anthracis 34F2 after 18 hrs by twofold serial broth dilution method; type: functional; settings: 34F2, 18 h

| SMILES | diameter of the inhibition zone (DIZ) (Bacillus subtilis [1]) | diameter of the inhibition zone (DIZ) (Bacillus subtilis [2]) | MIC (Bacillus anthracis) |
| --- | --- | --- | --- |
| O=[N+]([O-])c1cc[n+]([O-])c2ccccc12 [4-NITROQUINOLINE-1-OXIDE] | 24 mm | 13 mm |  |
| CC[C@@]1([C@H]2O[C@H]([C@H]3O[C@@](O)(CO)[C@H](C)C[C@@H]3C)C[C@H]2C)CC[C@H]([C@@]2(C)CC[C@]3(C[C@H](O)[C@@H](C)[C@@H]([C@H](C)[C@H](OC)[C@@H](C)C(=O)[O-])O3)O2)O1.[Na+] [MONENSIN SODIUM] |  |  | 1 µg/mL |
| CC[C@@H](C(=O)[C@@H](C)[C@@H](O)[C@H](C)[C@@H]1O[C@@H]([C@@H](CC)C(=O)[O-])CC[C@@H]1C)[C@H]1O[C@]2(C=C[C@@H](O)[C@]3(CC[C@@](C)([C@H]4CC[C@](O)(CC)[C@H](C)O4)O3)O2)[C@H](C)C[C@@H]1C.[Na+] [SALINOMYCIN SODIUM] |  |  | 1 µg/mL |
| CC[C@@H](C(=O)[C@@H](C)[C@@H](O)[C@H](C)[C@@H]1O[C@@H]([C@@H](CC)C(=O)O)CC[C@@H]1C)[C@H]1O[C@]2(C=C[C@@H](O)[C@]3(CC[C@@](C)([C@H]4CC[C@](O)(CC)[C@H](C)O4)O3)O2)[C@H](C)C[C@@H]1C [SALINOMYCIN] | 32 mm | 31 mm | 1 µg/mL (≈ 1.33 µM) |
